pIC50: −log10 of the molar value.
Test system: 843782-103-R-J1-PDC complex spheroid viability
Assay: Anticancer human tumor 843782-103-R-J1-PDC patient-derived lung adenocarcinoma cell line growth inhibition [RAS]
Settings: for pIC50: curve of first compound; for viability, T/C: stronger effect = lower value
How it was run: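 Agents were tested in combination matrices in half-log decrements from a top concentration at or near clinical Cmax (10 microM if undetermined). Targets were multi-cell spheroids of tumour lines plus HUVEC and MSC stromal cells.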

[1] = second compound 0.0316 µM, first compound 0.000949 µM
[2] = second compound 0.0316 µM, first compound 0.003 µM
[3] = second compound 0.0316 µM, first compound 0.00949 µM
[4] = second compound 0.0316 µM, first compound 0.03 µM
[5] = second compound 0.0316 µM, first compound 0.0949 µM
[6] = second compound 0.0316 µM, first compound 0.3 µM
[7] = second compound 0.1 µM, first compound 0.000949 µM
[8] = second compound 0.1 µM, first compound 0.003 µM
[9] = second compound 0.1 µM, first compound 0.00949 µM
[10] = second compound 0.1 µM, first compound 0.03 µM
[11] = second compound 0.1 µM, first compound 0.0949 µM
[12] = second compound 0.1 µM, first compound 0.3 µM
[13] = second compound 0.316 µM, first compound 0.000949 µM
[14] = second compound 0.316 µM, first compound 0.003 µM
[15] = second compound 0.316 µM, first compound 0.00949 µM
[16] = second compound 0.316 µM, first compound 0.03 µM
[17] = second compound 0.316 µM, first compound 0.0949 µM
[18] = second compound 0.316 µM, first compound 0.3 µM
[19] = second compound 1 µM, first compound 0.000949 µM
[20] = second compound 1 µM, first compound 0.003 µM
[21] = second compound 1 µM, first compound 0.00949 µM
[22] = second compound 1 µM, first compound 0.03 µM
[23] = second compound 1 µM, first compound 0.0949 µM
[24] = second compound 1 µM, first compound 0.3 µM
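Note: viability read after seven days of compound exposure.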

## CCc1c2c(nc3ccc(O)cc13)-c1cc3c(c(=O)n1C2)COC(=O)[C@]3(O)CC + C=CC(=O)N1CCN(c2nc(OCC3CCCN3C)nc3c(F)c(-c4nc(N)cc(C)c4C(F)(F)F)c(Cl)cc23)C(C)C1
Second compound 0.00316 µM
  pIC50: 8.78
Second compound 0.01 µM
  pIC50: 8.82
Second compound 0.0316 µM
  pIC50: 8.81
Second compound 0.1 µM
  pIC50: 8.81
Second compound 0.316 µM
  pIC50: 8.81
Second compound 1 µM
  pIC50: 8.82
Second compound 0.00316 µM, first compound 0.000949 µM
  viability, T/C: 80.4%
Second compound 0.00316 µM, first compound 0.003 µM
  viability, T/C: 18.2%
Second compound 0.00316 µM, first compound 0.00949 µM
  viability, T/C: 6.35%
Second compound 0.00316 µM, first compound 0.03 µM
  viability, T/C: 2.5%
Second compound 0.00316 µM, first compound 0.0949 µM
  viability, T/C: 1.18%
Second compound 0.00316 µM, first compound 0.3 µM
  viability, T/C: 0.74%
Second compound 0.01 µM, first compound 0.000949 µM
  viability, T/C: 72.8%
Second compound 0.01 µM, first compound 0.003 µM
  viability, T/C: 16.8%
Second compound 0.01 µM, first compound 0.00949 µM
  viability, T/C: 8.52%
Second compound 0.01 µM, first compound 0.03 µM
  viability, T/C: 3.04%
Second compound 0.01 µM, first compound 0.0949 µM
  viability, T/C: 0.93%
Second compound 0.01 µM, first compound 0.3 µM
  viability, T/C: 0.76%
[1]
  viability, T/C: 72.6%
[2]
  viability, T/C: 19.5%
[3]
  viability, T/C: 7.44%
[4]
  viability, T/C: 2.35%
[5]
  viability, T/C: 1.24%
[6]
  viability, T/C: 0.8%
[7]
  viability, T/C: 73.6%
[8]
  viability, T/C: 18.1%
[9]
  viability, T/C: 7.09%
[10]
  viability, T/C: 1.96%
[11]
  viability, T/C: 1.46%
[12]
  viability, T/C: 0.64%
[13]
  viability, T/C: 70.7%
[14]
  viability, T/C: 21.1%
[15]
  viability, T/C: 7.83%
[16]
  viability, T/C: 2.85%
[17]
  viability, T/C: 1.34%
[18]
  viability, T/C: 0.99%
[19]
  viability, T/C: 67.7%
[20]
  viability, T/C: 24.5%
[21]
  viability, T/C: 7.99%
[22]
  viability, T/C: 3.23%
[23]
  viability, T/C: 1.57%
[24]
  viability, T/C: 0.98%

## CC1(C)CCC(Nc2ncc(C(F)(F)F)c(-c3c[nH]c4c(P(C)(C)=O)c(C#N)ccc34)n2)CN1 (stereo unspecified) + C#Cc1c(F)ccc2cc(O)cc(-c3ncc4c(N5CC6CCC(C5)N6)nc(OCC56CCCN5CC(F)C6)nc4c3F)c12
Second compound 0.0316 µM
  pIC50: 7.65
Second compound 0.1 µM
  pIC50: 7.76
Second compound 0.316 µM
  pIC50: 7.70
Second compound 1 µM
  pIC50: 8.10
Second compound 3.16 µM
  pIC50: 8.25
Second compound 10 µM
  pIC50: 9.02
[1]
  viability, T/C: 102%
[2]
  viability, T/C: 93.6%
[3]
  viability, T/C: 72.1%
[4]
  viability, T/C: 44.9%
[5]
  viability, T/C: 21.1%
[6]
  viability, T/C: 22.7%
[7]
  viability, T/C: 103%
[8]
  viability, T/C: 88.1%
[9]
  viability, T/C: 58.6%
[10]
  viability, T/C: 42.5%
[11]
  viability, T/C: 26.8%
[12]
  viability, T/C: 23.1%
[13]
  viability, T/C: 101%
[14]
  viability, T/C: 76.2%
[15]
  viability, T/C: 58.1%
[16]
  viability, T/C: 51.5%
[17]
  viability, T/C: 25.6%
[18]
  viability, T/C: 24.6%
[19]
  viability, T/C: 88.5%
[20]
  viability, T/C: 69%
[21]
  viability, T/C: 46.2%
[22]
  viability, T/C: 30.9%
[23]
  viability, T/C: 26.4%
[24]
  viability, T/C: 20.5%
Second compound 3.16 µM, first compound 0.000949 µM
  viability, T/C: 61%
Second compound 3.16 µM, first compound 0.003 µM
  viability, T/C: 57.4%
Second compound 3.16 µM, first compound 0.00949 µM
  viability, T/C: 44%
Second compound 3.16 µM, first compound 0.03 µM
  viability, T/C: 29.2%
Second compound 3.16 µM, first compound 0.0949 µM
  viability, T/C: 24.9%
Second compound 3.16 µM, first compound 0.3 µM
  viability, T/C: 24.6%
Second compound 10 µM, first compound 0.000949 µM
  viability, T/C: 46.6%
Second compound 10 µM, first compound 0.003 µM
  viability, T/C: 44.9%
Second compound 10 µM, first compound 0.00949 µM
  viability, T/C: 37.4%
Second compound 10 µM, first compound 0.03 µM
  viability, T/C: 59.2%
Second compound 10 µM, first compound 0.0949 µM
  viability, T/C: 26%
Second compound 10 µM, first compound 0.3 µM
  viability, T/C: 21.8%

## CC1(O)CCCC1n1c(=O)c(C(F)F)cc2cnc(NC3CCN(S(C)(=O)=O)CC3)nc21 (stereo unspecified) + CCn1c(-c2cccnc2C(C)OC)c2c3cc(ccc31)N1CCOC(CC(NC(=O)C(C(C)C)N(C)C(=O)C3(F)CCN(C(=O)C#CC(C)(C)N(C)C)CC3)C(=O)N3CCCC(N3)C(=O)OCC(C)(C)C2)C1
Second compound 0.000949 µM
  pIC50: 7.23
Second compound 0.003 µM
  pIC50: 7.11
Second compound 0.00949 µM
  pIC50: 7.14
Second compound 0.03 µM
  pIC50: 7.20
Second compound 0.0949 µM
  pIC50: 7.13
Second compound 0.3 µM
  pIC50: 7.23
Second compound 0.000949 µM, first compound 0.0316 µM
  viability, T/C: 60.3%
Second compound 0.000949 µM, first compound 0.1 µM
  viability, T/C: 41.9%
Second compound 0.000949 µM, first compound 0.316 µM
  viability, T/C: 26.5%
Second compound 0.000949 µM, first compound 1 µM
  viability, T/C: 18.6%
Second compound 0.000949 µM, first compound 3.16 µM
  viability, T/C: 19%
Second compound 0.000949 µM, first compound 10 µM
  viability, T/C: 2.09%
Second compound 0.003 µM, first compound 0.0316 µM
  viability, T/C: 64.3%
Second compound 0.003 µM, first compound 0.1 µM
  viability, T/C: 48.8%
Second compound 0.003 µM, first compound 0.316 µM
  viability, T/C: 24.5%
Second compound 0.003 µM, first compound 1 µM
  viability, T/C: 22.2%
Second compound 0.003 µM, first compound 3.16 µM
  viability, T/C: 14.9%
Second compound 0.003 µM, first compound 10 µM
  viability, T/C: 2.67%
Second compound 0.00949 µM, first compound 0.0316 µM
  viability, T/C: 61.6%
Second compound 0.00949 µM, first compound 0.1 µM
  viability, T/C: 43.5%
Second compound 0.00949 µM, first compound 0.316 µM
  viability, T/C: 32.4%
Second compound 0.00949 µM, first compound 1 µM
  viability, T/C: 23.2%
Second compound 0.00949 µM, first compound 3.16 µM
  viability, T/C: 15.3%
Second compound 0.00949 µM, first compound 10 µM
  viability, T/C: 2.34%
Second compound 0.03 µM, first compound 0.0316 µM
  viability, T/C: 58.2%
Second compound 0.03 µM, first compound 0.1 µM
  viability, T/C: 45.9%
Second compound 0.03 µM, first compound 0.316 µM
  viability, T/C: 28.3%
Second compound 0.03 µM, first compound 1 µM
  viability, T/C: 24.2%
Second compound 0.03 µM, first compound 3.16 µM
  viability, T/C: 15.5%
Second compound 0.03 µM, first compound 10 µM
  viability, T/C: 4.11%
Second compound 0.0949 µM, first compound 0.0316 µM
  viability, T/C: 60.5%
Second compound 0.0949 µM, first compound 0.1 µM
  viability, T/C: 50.1%
Second compound 0.0949 µM, first compound 0.316 µM
  viability, T/C: 25.9%
Second compound 0.0949 µM, first compound 1 µM
  viability, T/C: 24.4%
Second compound 0.0949 µM, first compound 3.16 µM
  viability, T/C: 16.4%
Second compound 0.0949 µM, first compound 10 µM
  viability, T/C: 2.24%
Second compound 0.3 µM, first compound 0.0316 µM
  viability, T/C: 60.5%
Second compound 0.3 µM, first compound 0.1 µM
  viability, T/C: 43.2%
Second compound 0.3 µM, first compound 0.316 µM
  viability, T/C: 21.9%
Second compound 0.3 µM, first compound 1 µM
  viability, T/C: 23%
Second compound 0.3 µM, first compound 3.16 µM
  viability, T/C: 19.4%
Second compound 0.3 µM, first compound 10 µM
  viability, T/C: 1.76%

From PubChem BioAssay AID2060883 (Molecular Pharmacology Branch, DTP, NCI, 2025)
